Entries after “also recorded” stand apart in the source; their conditions may differ. Read-outs that look alike come from different tables or passages of the source.
Columns and labels:
MOR-1 [1] = molecular target: T1, MOR-1 (Mus musculus, UniProt P42866); assay: Screening of MOR-1 binders, single-dose inhibition of 125IBNtxA specific binding; design: expressed in transfected cells; host or cells: CHO cells; details: single dose 10 μM
Excerpt: Each panel is a representative experiment that has been independently replicated at least three times.

KOR-1 = molecular target: T2, KOR-1 (Mus musculus, UniProt P33534); assay: Competition binding against 125I-IBNtxA, KOR-1 CHO membranes; details: vs 125I-IBNtxA (0.1 nM), cloned mouse receptor, ± SEM
T2 construct: expressed in transfected cells
Experimental: (§1) FIGS. 7A-7C show competition assays at MOR-1, KOR-1 and DOR-1 against FMP4. Competition studies were performed with FMP4 against ^125I-IBNtxA (0.1 nM) in membranes from CHO cells stably expressing the indicated cloned mouse opioid receptors Each figure is a representative experiment that has been independently replicated at least three times. Error bars represent the SEM of triplicate samples. Error bars that cannot be seen are smaller than the size of the symbol.

DOR-1 = molecular target: T3, DOR-1 (Mus musculus, UniProt P32300); assay: Competition binding against 125I-IBNtxA, DOR-1 CHO membranes; details: vs 125I-IBNtxA (0.1 nM)
T3 construct: expressed in transfected cells
Experimental: as §1

MOR-1 [2] = molecular target: T1, MOR-1; assay: [35S]-GTPγS assay in MOR-1 expressing CHO cells; format: biochemical; design: expressed in transfected cells; host or cells: CHO cells; details: for Functional character in [35S]GTPγS assay at MOR-1: MOR-1 expressing CHO cells, compared with full agonist DAMGO 100 nM
Excerpt: Results are pooled from 3 independent replications and are expressed as mean±SEM.

MOR-1 [3] = molecular target: T1, MOR-1; assay: Competition binding against 125I-IBNtxA, MOR-1 CHO membranes; design: expressed in transfected cells; details: vs 125I-IBNtxA (0.1 nM)
[4] = cloned mouse receptor, ± SEM, read-out: Binding Data-Ki MOR-1
[5] = value in μM, read-out: Binding Data-Ki / affinity MOR-1 (μOR)

Cc1ccccc1OCCCCCCc1c(C)n[nH]c1C [FMP4, 3,5-dimethyl-4-[6-(o-tolyloxy)hexyl]-1H-pyrazole]
inhibition at 10 µM (MOR-1 [1]): ≥ 30%
Ki (KOR-1): 2.5 ± 0.523 µM
Ki (DOR-1; cloned mouse receptor, ± SEM): 8.14 ± 1.4 µM
Antagonism of GTPγS stimulation by 100 nM DAMGO (MOR-1 [2]; FMP4 at 30 μM): antagonized the GTPγS stimulation of 100 nM DAMGO
Functional character in [35S]GTPγS assay at MOR-1 (MOR-1 [2]): weak partial agonism; also recorded: partial agonist
Functional character in [35S]GTPγS assay at MOR-1 (MOR-1 [2]; listed as FMP 4): weak MOR-1 partial agonist
Stimulation of GTPγS binding (MOR-1 [2]; doses 1, 10 and 30 μM, ceiling effect, p<0.0001 vs control): stimulates GTPγS binding
Ki (MOR-1 [3]; [4]): 3.22 ± 0.153 µM
Ki (MOR-1 [3]; [5]): 3.2 µM

COc1cccc(OCCCCCN2CCCCC2)c1 [FMP6]
Ki (KOR-1): 6.94 ± 1.97 µM
Ki (DOR-1; value in μM): > 30 µM
Ki (MOR-1 [3]; [5]): > 30 µM

Cc1ccccc1OCCCCCN1CCOCC1 [FMP30]
Ki (KOR-1): 6.01 ± 2.16 µM
Ki (DOR-1; cloned mouse receptor, ± SEM): 12.8 ± 0.856 µM
Ki (MOR-1 [3]; [4]): 11.3 ± 2.26 µM

Cc1ccc(OCCCCCCc2c(C)n[nH]c2C)cc1 [FMP16, 3,5-dimethyl-4-[6-(p-tolyloxy)hexyl]-1H-pyrazole]
inhibition at 10 µM (MOR-1 [1]): ≥ 30%
Ki (KOR-1): 4.92 ± 2.24 µM
Ki (DOR-1; cloned mouse receptor, ± SEM): 9.06 ± 0.566 µM
Ki (MOR-1 [3]; [4]): 1.75 ± 0.492 µM
Ki (MOR-1 [3]; [5]): < 10 µM

Cc1ccccc1OCCCCCN1CCCCC1 [FMP1, 1-piperidino-5-(o-tolyloxy)pentane]
inhibition at 10 µM (MOR-1 [1]): ≥ 30%
Ki (KOR-1): 7.39 ± 2.38 µM
Ki (DOR-1; cloned mouse receptor, ± SEM): 17.9 ± 7.61 µM
Ki (MOR-1 [3]; [4]): 0.841 ± 0.242 µM
Ki (MOR-1 [3]; [5]): < 10 µM

Cc1cccc(C)c1OCCCCCN1CCN(C)CC1 [FMP21]
Ki (KOR-1): 5.5 ± 4.19 µM
Ki (DOR-1; value in μM): > 30 µM
Ki (MOR-1 [3]; [5]): > 30 µM

Reference: US11213518B2, “Ligands of the mu, kappa, and delta opioid receptors” (The Board of Trustees of the Leland Stanford Junior …, priority 2017, dated 2022)
